Experimental data: paper PMC9081329, “Pharmacokinetics, Mass Balance, Excretion, and Tissue Distribution of Plasmalogen Precursor PPI-1011” (Frontiers in Cell and Developmental Biology, 2022)
Where two headings read alike, the source gives them in different places.

Legend:
[1] = set-up: method as in manuscript in preparation; conditions: doses up to 1,000 mg/kg in adult rats; ref manuscript in preparation; cited from earlier work
[2] = set-up: method as in manuscript in preparation; conditions: 28-day repeat dosing at 400 mg/kg in primates; ref manuscript in preparation; cited from earlier work
[3] = Formulation concentration; format: physicochemical

## CC/C=C\C/C=C\C/C=C\C/C=C\C/C=C\C/C=C\CCC(=O)OC(COCCCCCCCCCCCCCCCC)COC(=O)CCCCC1CCSS1 (stereo not drawn) [PPI-1011, 1-O-hexadecyl-2-O-cis-4,7, 10, 13, 16, 19-docosahexaenoyl-3-O-lipoyl glycerol]
[1]
  Toxicity or adverse effects: no toxicity or adverse effects
[2]
  Toxicity or adverse effects: no toxicity or adverse effects
[3]
  Concentration amenable to formulation: ≤ 500000 µg/mL
